# From US8207160B2, “Tetrahydrobenzazepines and their use in he modulation of the dopamine D3 receptor” (Abbott GmbH & Co. KG, priority 2003, dated 2012)
# Like-named read-outs stand apart in the source and are kept apart here.
# Experiments:
# [1] = target: T1, human dopamine D3 receptors (Homo sapiens, UniProt P35462); test: Dopamine D3 receptor binding, displacement of [125I]-iodosulpride
# T1 construct: expressed in transfected cells; membranes used
# Method: (§1) C) Biological Investigations—Receptor-Binding Studies: • The substance to be tested was dissolved either in methanol/Chremophor®) (BASF-AG) or in dimethyl sulfoxide and then diluted with water to the desired concentration.
# I. Dopamine D3 Receptor: • The mixture (0.250 ml) was composed of membranes from ˜10^6 HEK-293 cells with stably expressed human dopamine D3 receptors, 0.1 nM [^125I]-iodosulpride and incubation buffer (total binding) or additionally test substance (inhibition plot) or 1 μM spiperone (nonspecific binding). Triplicate assays were carried out. • The incubation buffer contained 50 mM Tris, 120 mM NaCl, 5 mM KCl, 2 mM CaCl2, 2 mM MgCl2 and 0.1% bovine serum albumin, 10 μM quinolone, 0.1% ascorbic acid (prepared freshly each day). The buffer was adjusted to pH 7.4 with HCl.
# (§2) III. Measurement and Evaluation: • After incubation at 25° C. for 60 minutes, the mixtures were filtered through Wathman GF/B glass fiber filters under vacuum using a cell harvester. The filters were transferred using a filter transfer system into scintillation vials. After addition of 4 ml of Ultima Gold® (Packard), the samples were shaken for one hour and then the radioactivity was counted in a Beta Counter (Packard, Tricarb 2000 or 2200CA). The cp values were converted into dpm on the basis of a standard quench series with the aid of the program supplied with the instrument. • The inhibition plots were evaluated by iterative nonlinear regression analysis using the Statistical Analysis System (SAS), similar to the “LIGAND” program described by Munson and Rodbard. • The compounds of the invention show very good affinities for the D3 receptor in these assays (<100 nM, frequently <50 nM) and bind selectively to the D3 receptor.
# [2] = target: T2, human dopamine D2L receptors (long isoform) (Homo sapiens, UniProt P14416); test: Dopamine D2L receptor binding, displacement of [125I]-iodospiperone; settings: Ki(D2L)/Ki(D3); human D2L and D3 receptors in HEK-293 membranes
# T2 construct: expressed in transfected cells; membranes used
# T2 sequence (P14416 whole entry, canonical isoform): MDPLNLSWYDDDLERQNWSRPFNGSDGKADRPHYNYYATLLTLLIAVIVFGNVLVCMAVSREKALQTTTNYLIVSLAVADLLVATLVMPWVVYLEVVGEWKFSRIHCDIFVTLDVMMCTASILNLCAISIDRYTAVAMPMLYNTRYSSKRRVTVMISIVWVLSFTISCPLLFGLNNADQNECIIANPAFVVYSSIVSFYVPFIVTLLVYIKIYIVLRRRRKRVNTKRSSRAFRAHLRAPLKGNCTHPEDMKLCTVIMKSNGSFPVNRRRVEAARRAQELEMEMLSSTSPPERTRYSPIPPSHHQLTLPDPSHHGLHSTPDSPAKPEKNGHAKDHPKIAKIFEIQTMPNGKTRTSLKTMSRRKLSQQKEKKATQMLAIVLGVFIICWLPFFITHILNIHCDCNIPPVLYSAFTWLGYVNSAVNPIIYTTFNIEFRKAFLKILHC
# Method: as §1
# II. Dopamine D2L receptor: • The mixture (1 ml) was composed of membranes from ˜10^6 HEK-293 cells with stably expressed human dopamine D2L receptors (long isoform) and 0.01 nM [^125I]-iodospiperone and incubation buffer (total binding) or additionally test substance (inhibition plot) or 1 μM haloperidol (nonspecific binding). Triplicate assays were carried out. • The incubation buffer contained 50 mM Tris, 120 mM NaCl, 5 mM KCl, 2 mM CaCl2, 2 mM MgCl2 and 0.1% bovine serum albumin. The buffer was adjusted to 7.4 with HCl.
# as §2
# [3] = membranes from HEK-293 cells with stably expressed human dopamine D3 receptors, 0.1 nM [125I]-iodosulpride, 25° C., 60 minutes, read-out: Ki (D3)
# T1 sequence (P35462 whole entry): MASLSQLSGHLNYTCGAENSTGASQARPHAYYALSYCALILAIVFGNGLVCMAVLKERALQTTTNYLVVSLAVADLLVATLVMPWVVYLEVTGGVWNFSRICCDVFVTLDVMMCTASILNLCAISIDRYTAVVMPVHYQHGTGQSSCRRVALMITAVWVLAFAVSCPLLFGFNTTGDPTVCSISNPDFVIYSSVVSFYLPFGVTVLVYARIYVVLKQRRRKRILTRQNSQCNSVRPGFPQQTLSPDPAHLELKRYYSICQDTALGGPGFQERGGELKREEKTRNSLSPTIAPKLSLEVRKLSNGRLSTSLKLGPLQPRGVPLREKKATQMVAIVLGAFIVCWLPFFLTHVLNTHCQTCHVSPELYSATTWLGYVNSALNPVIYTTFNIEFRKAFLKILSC
SMILES,Ki [1] [nM],Selectivity vs. D2L* [2],"Ki [1, 3] [nM]"
"CCCN1CCc2ccc(NS(=O)(=O)c3ccc(C)cc3)cc2CC1.O=C(O)C(F)(F)F [Example 11, 4-Methyl-N-(3-Propyl-2,3,4,5-Tetrahydro-1H-3-Benzazepin-7-yl)Benzene Sulfonamide Trifluoroacetate]",4.7,112,–
"CCCN1CCc2ccc(CS(=O)(=O)c3ccc(C(C)C)cc3)cc2CC1 [Example 36, 7-(4-Isopropylbenzenesulfonylmethyl)-3-Propyl-2,3,4,5-Tetrahydro-1H-3-Benzazepine]",–,446,1
"CCCN1CCc2ccc(NS(=O)(=O)c3ccc(OC(F)(F)F)cc3)cc2CC1 [Example 2, N-(3-Propyl-2,3,4,5-Tetrahydro-1H-3-Benzazepin-7-yl)-4-Trifluoromethoxy-Benzenesulfonamide]",–,99,7.1
"CCCN1CCc2ccc(NS(=O)(=O)c3ccc(C(C)=O)cc3)cc2CC1 [Example 10, 4-Acetyl-N-(3-Propyl-2,3,4,5-Tetrahydro-1H-3-Benzazepin-7-yl)Benzenesulfonamide]",–,271,16.5
"CCCN1CCc2ccc(NS(=O)(=O)c3ccc(OC)cc3)cc2CC1.O=C(O)C(F)(F)F [Example 16, 4-Methoxy-N-(3-Propyl-2,3,4,5-Tetrahydro-1H-3-Benzazepin-7-yl)Benzene-Sulfonamide Trifluoroacetate]",–,142,8.1
"CCCN1CCc2ccc(NS(=O)(=O)c3ccc(C(C)(C)CC)cc3)cc2CC1.O=C(O)C(F)(F)F [Example 14, 4-(1,1-Dimethylpropyl)-N-(3-Propyl-2,3,4,5-Tetrahydro-1H-3-Benzazepin-7-yl)Benzenesulfonamide Trifluoroacetate]",–,113,3.6
"CCCCc1ccc(S(=O)(=O)Nc2ccc3c(c2)CCN(CCC)CC3)cc1.O=C(O)C(F)(F)F [Example 13, 4-Butyl-N-(3-Propyl-2,3,4,5-Tetrahydro-1H-3-Benzazepin-7-yl)Benzene-Sulfonamide Trifluoroacetate]",–,143,0.6
"C=CCN1CCc2ccc(NS(=O)(=O)c3ccc(C(F)(F)F)cc3)cc2CC1.Cl [Example 58, N-(3-Allyl-2,3,4,5-Tetrahydro-1H-3-Benzazepin-7-yl)4-(Trifluoromethyl)Benzenesulfonamide Hydrochloride]",–,84,3.4
"CCCN1CCc2ccc(NS(=O)(=O)c3cc(Cl)sc3Cl)cc2CC1.O=C(O)C(F)(F)F [Example 22, N-(3-Propyl-2,3,4,5-Tetrahydro-1H-3-Benzazepin-7-yl)-2,5-Dichlorothiophene-3-Sulfonamide Trifluoroacetate]",13,46,–
"CCCN1CCc2ccc(NS(=O)(=O)c3ccc(Br)cc3C)cc2CC1.O=C(O)C(F)(F)F [Example 20, 4-Bromo-2-Methyl-N-(3-Propyl-2,3,4,5-Tetrahydro-1H-3-Benzazepin-7-yl)-Benzenesulfonamide Trifluoroacetate]",–,85,7.1
"CCCN1CCc2ccc(NS(=O)(=O)c3ccc(Cl)s3)cc2CC1.O=C(O)C(F)(F)F [Example 21, N-(3-Propyl-2,3,4,5-Tetrahydro-1H-3-Benzazepin-7-yl)-5-Chlorothiophene-2-Sulfonamide Trifluoroacetate]",16,47,–
"CCCN1CCc2ccc(NS(=O)(=O)c3ccc(CC)cc3)cc2CC1.Cl [Example 5, 4-Ethyl-N-(3-Propyl-2,3,4,5-Tetrahydro-1H-3-Benzazepin-7-yl)Benzenesulfonamide Hydrochloride]",–,368,1
"CCCN1CCc2ccc(NS(=O)(=O)c3ccc(C(F)(F)F)cc3)cc2CC1.Cl [Example 6, N-(3-Propyl-2,3,4,5-Tetrahydro-1H-3-Benzazepin-7-yl)-4-(Trifluoromethyl)-Benzenesulfonamide Hydrochloride]",–,252,5.8
"CC(C)c1ccc(S(=O)(=O)Nc2ccc3c(c2)CCN(CCCF)CC3)cc1.Cl [Example 66, N-[3-(3-Fluoropropyl)-2,3,4,5-Tetrahydro-1H-3-Benzazepin-7-yl]-4-Isopropylbenzenesulfonamide Hydrochloride]",–,146,1.2
"CCCN1CCc2ccc(S(=O)(=O)Nc3ccc(OC(F)(F)F)cc3)cc2CC1.Cl [Example 35, 3-Propyl-N-[4-(Trifluoromethoxy)Phenyl]-2,3,4,5-Tetrahydro-1H-3-Benzazepine-7-Sulfonamide Hydrochloride]",–,40,28.2
"C=CCN1CCc2ccc(NS(=O)(=O)c3ccc(C(C)C)cc3)cc2CC1.Cl [Example 65, N-(3-Allyl-2,3,4,5-Tetrahydro-1H-3-Benzazepin-7-yl)-4-(Isopropyl)Benzenesulfonamide Hydrochloride]",–,141,0.4
"CCCN1CCc2ccc(NS(=O)(=O)c3c(C)cc(C)cc3C)cc2CC1.O=C(O)C(F)(F)F [Example 12, 2,4,6-Trimethyl-N-(3-Propyl-2,3,4,5-Tetrahydro-1H-3-Benzazepin-7-yl)-Benzenesulfonamide Trifluoroacetate]",–,90,7.2
"CC(C)c1ccc(S(=O)(=O)Nc2ccc3c(c2)CCN(C)CC3)cc1.Cl [Example 56, 4-Isopropyl-N-(3-Methyl-2,3,4,5-Tetrahydro-1H-3-Benzazepin-7-yl)Benzenesulfonamide Hydrochloride]",–,66,1.2
"CCCN1CCc2ccc(NS(=O)(=O)c3ccc4ccccc4c3)cc2CC1.O=C(O)C(F)(F)F [Example 17, N-(3-Propyl-2,3,4,5-Tetrahydro-1H-3-Benzazepin-7-yl)Naphthalene-2-Sulfonamide Trifluoroacetate]",–,68,4.5
"CCCN1CCc2ccc(NS(=O)(=O)c3ccc(C(C)C)cc3)cc2CC1.Cl [Example 8, 4-Isopropyl-N-(3-Propyl-2,3,4,5-Tetrahydro-1H-3-Benzazepin-7-yl)Benzenesulfonamide Hydrochloride]",–,330,0.3
"CCCN1CCc2ccc(NS(=O)(=O)c3ccc(Cl)cc3Cl)cc2CC1.O=C(O)C(F)(F)F [Example 18, 2,4-Dichloro-N-(3-Propyl-2,3,4,5-Tetrahydro-1H-3-Benzazepin-7-yl)Benzenesulfonamide Trifluoroacetate]",–,85,7.3
"C=Cc1ccc(S(=O)(=O)Nc2ccc3c(c2)CCN(CCC)CC3)cc1.Cl [Example 4, N-(3-Propyl-2,3,4,5-Tetrahydro-1H-3-Benzazepin-7-yl)-4-Vinylbenzenesulfonamide Hydrochloride]",–,435,0.5
"CCCN1CCc2ccc(NS(=O)(=O)c3ccc(C(C)(C)C)cc3)cc2CC1.Cl [Example 7, 4-Tert-Butyl-N-(3-Propyl-2,3,4,5-Tetrahydro-1H-3-Benzazepin-7-yl)Benzenesulfonamide Hydrochloride]",–,120,4.1
"CCCN1CCc2ccc(NS(=O)(=O)c3ccc(Br)cc3)cc2CC1.O=C(O)C(F)(F)F [Example 19, 4-Bromo-N-(3-Propyl-2,3,4,5-Tetrahydro-1H-3-Benzazepin-7-yl)Benzene-Sulfonamide Trifluoroacetate]",3,65,–
"CCCN1CCc2ccc(NS(=O)(=O)c3ccc(Cl)cc3)cc2CC1 [Example 3, 4-Chloro-N-(3-Propyl-2,3,4,5-Tetrahydro-1H-3-Benzazepin-7-yl)Benzenesulfonamide]",–,68,4.1
"CCCN1CCc2ccc(N(C)S(=O)(=O)c3ccc(C(C)C)cc3)cc2CC1.O=C(O)C(F)(F)F [Example 31, 4-Isopropyl-N-Methyl-N-(3-Propyl-2,3,4,5-tetrahydro-1H-3-Benzazepin-7-yl)Benzenesulfonamide Trifluoroacetate]",–,63,1
"CC(C)c1ccc(S(=O)(=O)Nc2ccc3c(c2)CCN(CC2CC2)CC3)cc1.Cl [Example 57, N-(3-Cyclopropylmethyl-2,3,4,5-Tetrahydro-1H-3-Benzazepin-7-yl)4-Isopropylbenzenesulfonamide Hydrochloride]",–,115,2.1
